These results are taken from ChEMBL document CHEMBL4219188, “Design, synthesis, neuroprotective, antibacterial activities and docking studies of novel thieno[2,3-d]pyrimidine-alkyne Mannich base and oxadiazole hybrids” (Bioorg Med Chem Lett, 2018).

In series [1] the test system is Pseudomonas aeruginosa. In words: Antibacterial activity against Pseudomonas aeruginosa after 24 hrs by UV-vis spectrophotometric method. The series is classed as functional.
Series [2] is described as follows: Cytotoxicity against rat PC12 cells assessed as cell viability at CC50 after 24 hrs by MTT assay relative to control. Format: cell-based, PC-12. To be noted: read-out: Activity. (In general: Tetrazolium dyes change colour on reduction, which living cells bring about.)
Series [3] relates to Bacillus subtilis. Kind of series: Antibacterial activity against Bacillus subtilis after 24 hrs by UV-vis spectrophotometric method. The series is classed as functional.
The test system of series [4] is Staphylococcus aureus. In words: Antibacterial activity against Staphylococcus aureus assessed as diameter of inhibition zone measured after 24 hrs by agar well diffusion method. Format: functional.
Series [5] deals with Escherichia coli. Kind of series: Antibacterial activity against Escherichia coli after 24 hrs by UV-vis spectrophotometric method. Format: functional.
A short description of series [6]: Cytotoxicity against rat PC12 cells after 24 hrs by MTT assay. Format: cell-based, PC-12. The following applies: for MNTC at 24 h: read-out: MNCC.
For series [7], the system named is Staphylococcus aureus. In words: Antibacterial activity against Staphylococcus aureus after 24 hrs by UV-vis spectrophotometric method. The series is classed as functional.
Series [8] concerns Escherichia coli. Kind of series: Antibacterial activity against Escherichia coli assessed as diameter of inhibition zone measured after 24 hrs by agar well diffusion method. Format: functional. (In general: A growth-free zone around the sample is the usual read-out of agar diffusion tests.)
The subject of series [9] is Pseudomonas aeruginosa. Kind of series: Antibacterial activity against Pseudomonas aeruginosa assessed as diameter of inhibition zone measured after 24 hrs by agar well diffusion method. Format: functional.
Series [10] deals with PC-12. Kind of series: Neuroprotective activity against H2O2-induced cytotoxicity in rat PC12 cells assessed as increase in cell viability pretreated for 24 hrs followed by H2O2 addition by MTT assay. The series is classed as functional, cell-based.
A short description of series [11]: Cytotoxicity against rat PC12 cells assessed as cell viability at MNTC after 24 hrs by MTT assay relative to control. The series is classed as cell-based, PC-12. To be noted: read-out: Activity.
Series [12] relates to Bacillus subtilis. In words: Antibacterial activity against Bacillus subtilis assessed as diameter of inhibition zone measured after 24 hrs by agar well diffusion method. Format: functional.
Series [13] concerns PC-12. Kind of series: Neuroprotective activity against H2O2-induced cytotoxicity in rat PC12 cells assessed as cell viability at EC50 pretreated for 24 hrs followed by H2O2 addition by MTT assay relative to control. Format: functional.

Structures are written as SMILES. In brackets after ≈: the same amount, converted by molar mass.

For `COc1ccc(N2CCN(CC#CCOC(=O)c3sc4ncnc(N5CCOCC5)c4c3C)CC2)cc1`, the MIC with Pseudomonas aeruginosa [1] was found to be 0.062 mg/L (≈ 0.119 µM); against Bacillus subtilis [3], 0.062 mg/L (≈ 0.119 µM); against Escherichia coli [5], 0.12 mg/L (≈ 0.23 µM); in the series with Staphylococcus aureus [7], 0.062 mg/L (≈ 0.119 µM). The viability at 24 h in series [2] came out at 49.1%; in series [11] it was 98.1%. Besides, the “diameter of the inhibition zone (DIZ)” value in the series with Staphylococcus aureus [4] is 8 mm; in the series on Escherichia coli [8], 12 mm; in the series with Pseudomonas aeruginosa [9], 14 mm; with Bacillus subtilis [12] it was 12 mm. It took 144 mg/L (≈ 276 µM) to reach half-maximal cytotoxicity in [6] (CC50 at 24 h). Besides, the MNTC at 24 h in series [6] is 60 µg/mL. The Activity entry was “Dose-dependent effect” in the series with PC-12 [10] and 74.89% in the series on PC-12 [13]. In addition, the EC50 with PC-12 [10] was 36.2 mg/L (≈ 69.3 µM).
Regarding `Cc1c(-c2nnc(-c3ccc(Cl)cc3)o2)sc2ncnc(N3CCCCC3)c12`, the MIC against Pseudomonas aeruginosa [1] was found to be 0.144 mg/L (≈ 0.35 µM); against Bacillus subtilis [3], 0.0284 mg/L (≈ 0.0689 µM); against Escherichia coli [5], 0.186 mg/L (≈ 0.452 µM); in the series with Staphylococcus aureus [7], 0.0224 mg/L (≈ 0.0544 µM). The values for the viability at 24 h in series [2] and in series [11] were 48.9% and 98.2%, respectively. Also, the “diameter of the inhibition zone (DIZ)” value with Staphylococcus aureus [4] amounted to 16 mm; in the series on Escherichia coli [8] it was 15 mm; in the series on Pseudomonas aeruginosa [9] it was 14 mm; in the series with Bacillus subtilis [12], 13 mm. The same compound gave a CC50 at 24 h in series [6] of 151 mg/L (≈ 366 µM). Also, the MNTC at 24 h in [6] was determined as 136 µg/mL. In addition, the values for the Activity entry in the series with PC-12 [10] and in the series on PC-12 [13] were “Dose-dependent effect” and 75.04%, respectively. The EC50 in the series on PC-12 [10] worked out at 21.8 mg/L (≈ 53 µM).
Turning to `Cc1c(C(=O)OCC#CCN2CCN(c3cc(C4CC4)ccc3C#N)CC2)sc2ncnc(N3CCCCC3)c12`, the MIC in the series on Pseudomonas aeruginosa [1] is 0.0686 mg/L (≈ 0.124 µM); in the series with Bacillus subtilis [3], 0.0581 mg/L (≈ 0.105 µM); against Escherichia coli [5], 0.521 mg/L (≈ 0.939 µM); in the series with Staphylococcus aureus [7], 0.0422 mg/L (≈ 0.0761 µM). Further, the viability at 24 h in series [2] turned out to be 50.1%; in series [11] it was 99.6%. For the same compound, the “diameter of the inhibition zone (DIZ)” value in the series on Staphylococcus aureus [4] was determined as 14 mm; in the series with Escherichia coli [8] it was 17 mm; in the series with Pseudomonas aeruginosa [9], 17 mm; in the series on Bacillus subtilis [12] it was 16 mm. In addition, it took 148 mg/L (≈ 267 µM) to reach half-maximal cytotoxicity in series [6] (CC50 at 24 h). For the same compound, the MNTC at 24 h in series [6] stood at 110 µg/mL. The Activity entry with PC-12 [10] was “Dose-dependent effect”; in the series on PC-12 [13], 75.14%. For the same compound, the EC50 with PC-12 [10] was determined as 16.2 mg/L (≈ 29.2 µM).
On to `Cc1c(C(=O)OCC#CCN2CCN(c3ccc(Br)cc3C#N)CC2)sc2ncnc(N3CCOCC3)c12`, for which the MIC in the series on Pseudomonas aeruginosa [1] stood at 0.0128 mg/L (≈ 0.0215 µM); against Bacillus subtilis [3] it was 0.0628 mg/L (≈ 0.105 µM); in the series with Escherichia coli [5], 0.0324 mg/L (≈ 0.0544 µM); with Staphylococcus aureus [7], 0.526 mg/L (≈ 0.883 µM). The viability at 24 h is 49% in series [2] and 99.6% in series [11]. The “diameter of the inhibition zone (DIZ)” value in the series on Staphylococcus aureus [4] amounted to 10 mm; in the series with Escherichia coli [8], 13 mm; with Pseudomonas aeruginosa [9], 12 mm; in the series on Bacillus subtilis [12], 12 mm. The CC50 at 24 h in [6] was found to be 122 mg/L (≈ 205 µM). Besides, the MNTC at 24 h in series [6] turned out to be 100 µg/mL. For the same compound, the Activity entry in the series with PC-12 [10] is “Dose-dependent effect”; in the series on PC-12 [13], 75.44%. Moreover, the EC50 in the series with PC-12 [10] was 32.3 mg/L (≈ 54.2 µM).
For `Cc1c(-c2nnc(-c3ccc(Cl)cc3)o2)sc2ncnc(N3CCOCC3)c12`, the MIC is 0.0144 mg/L (≈ 0.0348 µM) in the series with Pseudomonas aeruginosa [1], 0.0144 mg/L (≈ 0.0348 µM) with Bacillus subtilis [3], 0.0172 mg/L (≈ 0.0416 µM) against Escherichia coli [5] and 0.0136 mg/L (≈ 0.0329 µM) in the series with Staphylococcus aureus [7]. Besides, the viability at 24 h worked out at 51.1% in series [2] and 98.3% in [11]. Further, the “diameter of the inhibition zone (DIZ)” value is on record as 13 mm in the series on Staphylococcus aureus [4], 13 mm with Escherichia coli [8], 18 mm in the series with Pseudomonas aeruginosa [9] and 18 mm in the series on Bacillus subtilis [12]. Half-maximal cytotoxicity in series [6] (CC50 at 24 h) was put at 168 mg/L (≈ 406 µM). Further, the MNTC at 24 h in series [6] came to 120 µg/mL. In addition, the results for the Activity entry in the series on PC-12 [10] and with PC-12 [13] were “Dose-dependent effect” and 77.18%, respectively. Also, the EC50 in the series on PC-12 [10] came out at 28.2 mg/L (≈ 68 µM).
Regarding `Cc1ccc(C#N)c(N2CCN(CC#CCOC(=O)c3sc4ncnc(N5CCCCC5)c4c3C)CC2)c1`, the MIC stood at 0.0624 mg/L (≈ 0.118 µM) against Pseudomonas aeruginosa [1], 0.0312 mg/L (≈ 0.059 µM) in the series with Bacillus subtilis [3], 0.0144 mg/L (≈ 0.0272 µM) with Escherichia coli [5] and 0.122 mg/L (≈ 0.231 µM) against Staphylococcus aureus [7]. The viability at 24 h worked out at 49% in [2] and 98.2% in series [11]. In addition, the “diameter of the inhibition zone (DIZ)” value is given as 13 mm in the series with Staphylococcus aureus [4], 15 mm with Escherichia coli [8], 14 mm with Pseudomonas aeruginosa [9] and 13 mm in the series on Bacillus subtilis [12]. In series [6], the CC50 at 24 h amounted to 114 mg/L (≈ 216 µM). In addition, the MNTC at 24 h in series [6] stood at 96 µg/mL. Besides, the Activity result was “Dose-dependent effect” in the series with PC-12 [10] and 76.04% in the series on PC-12 [13]. Moreover, in the series on PC-12 [10], the EC50 is 38.2 mg/L (≈ 72.2 µM).
Consider `Cc1c(-c2nnc(-c3ccccc3)o2)sc2ncnc(N3CCCCC3)c12`, for which the minimal inhibitory concentration (MIC) with Pseudomonas aeruginosa [1] was 0.0144 mg/L (≈ 0.0381 µM); with Bacillus subtilis [3], 0.0128 mg/L (≈ 0.0339 µM); with Escherichia coli [5] it was 0.0132 mg/L (≈ 0.035 µM); with Staphylococcus aureus [7], 0.0125 mg/L (≈ 0.0331 µM). Also, the viability at 24 h amounted to 54.1% in series [2] and 99.2% in series [11]. In addition, the “diameter of the inhibition zone (DIZ)” value amounted to 11 mm in the series with Staphylococcus aureus [4], 10 mm in the series with Escherichia coli [8], 13 mm with Pseudomonas aeruginosa [9] and 14 mm in the series with Bacillus subtilis [12]. Besides, the midpoint of cytotoxicity in series [6], the CC50 at 24 h, lay at 146 mg/L (≈ 387 µM). Besides, the MNTC at 24 h in series [6] is 100 µg/mL. Besides, the Activity result in the series with PC-12 [10] was “Dose-dependent effect”; with PC-12 [13] it was 76.88%. Moreover, the concentration giving a half-maximal response (EC50) in the series on PC-12 [10] is 22.1 mg/L (≈ 58.6 µM).
With `COc1cccc(N2CCN(CC#CCOC(=O)c3sc4ncnc(N5CCCCC5)c4c3C)CC2)c1`, the MIC amounted to 0.0842 mg/L (≈ 0.162 µM) against Pseudomonas aeruginosa [1], 0.521 mg/L (≈ 1 µM) against Bacillus subtilis [3], 0.0384 mg/L (≈ 0.0739 µM) in the series with Escherichia coli [5] and 0.0244 mg/L (≈ 0.047 µM) in the series with Staphylococcus aureus [7]. Moreover, the values for the viability at 24 h in series [2] and in [11] were 51% and 98.2%, respectively. In addition, the “diameter of the inhibition zone (DIZ)” value in the series on Staphylococcus aureus [4] worked out at 10 mm; with Escherichia coli [8], 13 mm; with Pseudomonas aeruginosa [9] it was 14 mm; in the series on Bacillus subtilis [12], 13 mm. The compound further returned a CC50 at 24 h in series [6] of 144 mg/L (≈ 278 µM). In addition, the MNTC at 24 h in series [6] came out at 96 µg/mL. Also, the Activity result in the series with PC-12 [10] is “Dose-dependent effect”; in the series on PC-12 [13], 75.08%. In addition, in the series on PC-12 [10], the EC50 worked out at 40.4 mg/L (≈ 77.8 µM).
As to `COc1ccc(N2CCN(CC#CCOC(=O)c3sc4ncnc(N5CCCCC5)c4c3C)CC2)cc1`, the MIC with Pseudomonas aeruginosa [1] is 0.0614 mg/L (≈ 0.118 µM); in the series on Bacillus subtilis [3], 0.0158 mg/L (≈ 0.0304 µM); in the series with Escherichia coli [5] it was 0.622 mg/L (≈ 1.2 µM); in the series on Staphylococcus aureus [7] it was 0.313 mg/L (≈ 0.602 µM). The viability at 24 h in series [2] stood at 49.4%; in series [11] it was 99.4%. Moreover, the “diameter of the inhibition zone (DIZ)” value was found to be 13 mm in the series with Staphylococcus aureus [4], 11 mm with Escherichia coli [8], 10 mm in the series on Pseudomonas aeruginosa [9] and 11 mm in the series with Bacillus subtilis [12]. The CC50 at 24 h in [6] stood at 140 mg/L (≈ 269 µM). Moreover, the MNTC at 24 h in series [6] turned out to be 80 µg/mL. Further, the Activity entry in the series with PC-12 [10] is “Dose-dependent effect”; with PC-12 [13], 76.16%. Besides, in the series on PC-12 [10], the EC50 is 35.3 mg/L (≈ 67.9 µM).

By MIC is commonly meant the smallest concentration in the dilution series that meets the test's criterion for growth inhibition. Higher therefore signals a need for much substance. Broadly, the CC50 is the concentration at which the toxic effect on the cells reaches its halfway point. Broadly, the EC50 is the concentration giving half of the maximal effect.
